Measured values: patent US20160320384A1, “METHODS FOR ASSAYING IMMUNOLOGICAL COMPETENCE” (YEDA RESEARCH AND DEVELOPMENT CO. LTD., priority 2013, published 2016)

Assays:
[1] = system: serum IgG antibodies; assay: Serum IgG antibody binding to oligonucleotides on antigen microarray; design: species or system human; conditions: for IgG reactivities compared to T17: individual subjects (FIGS. 5A-B); for IgG binding compared to G17: individual subjects (FIG. 4)
Experimental: (§1) In a follow-up study, sera samples obtained from 23 healthy subjects, 24 SSc patients, and 49 SLE patients were tested using an antigen microarray that included 58 single-stranded oligonucleotides. Overall, 60 SLE patients, 26 SSc patients, 18 PV patients, and 31 healthy subjects were tested.
(§2) In a follow-up study, 58 different oligonucleotides, as well as double and single stranded DNA, in various lengths (104 different preparations overall), were spotted on epoxy-activated glass substrates (ArrayIt SuperEpoxi microarray substrate slides, Sunnyvale, Calif.). […] The microarrays were then blocked for 1 hour at 37° with 1% bovine serum albumin. Test serum samples in 1% Bovine Serum Albumin (BSA) blocking buffer (1:10 dilution) were incubated under a coverslip for 1 hour at 37°. The arrays were then washed and incubated for 1 hour at 37° with a 1:500 dilution of two detection antibodies, mixed together: a goat anti-human IgG Cy3-conjugated antibody, and a goat anti-human IgM Cy5-conjugated antibody (both purchased from Jackson ImmunoResearch Laboratories Inc., West Grove, Pa.). Image acquisition was performed by laser (Agilent Technologies, Santa Clara, Calif.) and the results were analyzed using Quantarray software (Packard BioChip Technologies, Billerica, Mass.). The quantitative range of signal intensity of binding to each antigen spot was 0-65,000; this range of detection made it possible to obtain reliable data at a 1:10 dilution of test serum samples.
(§3) Alternatively, oligonucleotides and double and single stranded DNA in various chain lengths were spotted on epoxyhexyltriethoxysilane (EHTES) activated slides. The microarrays were then blocked for 1 hour at room temperature with 1% casein. Test serum samples in 1% casein blocking buffer (1:20 dilution) were incubated under a coverslip for 1 hour at 37°. The arrays were then washed and incubated for 1 hour at 37° with a 1:500 dilution of two detection antibodies, mixed together: a goat anti-human IgG Cy3-conjugated antibody, and a goat anti-human IgM AF647-conjugated antibody (both purchased from Jackson ImmunoResearch Laboratories Inc., West Grove, Pa.). Image acquisition was performed by laser at two wavelengths 530 nm and 630 nm (Agilent Technologies, Santa Clara, Calif.) and the results were analyzed using Genepix Pro 7.0 software with default settings. The quantitative range of signal intensity of binding to each antigen spot was 0-65,000; this range of detection made it possible to obtain reliable data at a 1:20 dilution of test samples.
(§4) Each spot's intensity is represented by its pixels' mean after subtraction of its local background median, followed by Log 2 transform. Negative spots (following background subtraction) are imputed with background-like intensity. The foreground and background intensities of multiple spots of each antigen were averaged, and the difference between the foreground and the background was calculated.

[2] = system: serum IgM antibodies; assay: Serum IgM antibody binding to oligonucleotides on antigen microarray; design: species or system human; conditions: for IgM reactivities compared to T17: individual subjects (FIGS. 5A-B); for IgM binding compared to G17: individual subjects (FIG. 4)
Experimental: as §1, §2, §3, §4

[3] = system: poly-G autoantibody; assay: Poly-G autoantibody levels in kidney transplanted patients at baseline and 24 weeks after transplantation and immunosuppression (antigen microarray); type: in vivo, human; design: reduction in G14 IgM autoantibody intensity / reduction in G14 IgG autoantibody intensity / reduction in G40 IgM autoantibody intensity: concentration or dose not given beside the values
[4] = median intensity, 24 weeks after Tx vs baseline
[5] = both studies combined: 60 SLE, 26 SSc, 18 PV patients, 31 healthy subjects
[6] = healthy subjects, SSc and PV patients (FIG. 1)

In the case of “T16G1: poly-T chain with a single G at the 3′ end (DNA TTTTTTTTTTTTTTTTG; listed as DNA, chemistry not fully specified)”, the “IgG reactivities compared to T17” value [1] is reported as “increased in almost all the subjects” and the “IgM reactivities compared to T17” value [2] is reported as “increased in almost all the subjects”.
“G2T16: modified T17 oligonucleotide (DNA GGTTTTTTTTTTTTTTTT; listed as DNA, chemistry not fully specified)” was tested, and the “IgG reactivities compared to T17” value [1] was “also increased compared to T17” and the “IgM reactivities compared to T17” value [2] was “also increased compared to T17”.
In the case of “G1T16: poly-T chain with a single G at the 5′ end (DNA GTTTTTTTTTTTTTTTT; listed as DNA, chemistry not fully specified)”, the “IgG reactivities compared to T17” value [1] is reported as “increased in almost all the subjects” and the “IgM reactivities compared to T17” value [2] is reported as “increased in almost all the subjects”.
In the case of “G17: poly-guanine oligonucleotide antigen, 17 guanines (GGGGGGGGGGGGGGGGG; listed as DNA, chemistry not fully specified)”, the “mean IgG reactivities as a function of chain length” value ([1]; healthy, SSc, SLE dsDNA-negative and -positive groups (FIG. 3)) is reported as “fell significantly”.
“CGCGCGCGCGCGCGCGCGCG (listed as DNA, chemistry not given here) [(CG)10]” was tested, and the IgG reactivities ([1]; group of SLE patients, mainly positive for anti-dsDNA (FIG. 6)) was “high IgG reactivities” and the IgM reactivities ([2]; healthy subjects, SSc and SLE patients (FIG. 6)) was “high in all but one of the healthy subjects, in all of the SSc patients and in most of the SLE patients”.
belatacept was tested, and the “patients in whom the reduction in poly-G autoantibody intensity was observed” value ([3]; 6 months post immunosuppression administration, 6 patients per group) was “observed in all belatacept patients”, the “reduction in autoantibodies median intensity, combined poly-G reactivity” value ([3]; FIGS. 12A-B, 24 weeks after Tx vs baseline, belatacept vs CsA) was “greater reduction” and the “Antibody level 24 weeks after transplantation and drug administration compared to baseline (%, median intensity): IgG levels against G14 (SEQ ID NO: 41)” value ([3]; kidney transplanted patients, serum, 24 weeks after Tx vs baseline, IgG, G14) was 53%. For the same substance, the “Antibody level 24 weeks after transplantation and drug administration compared to baseline (%, median intensity): IgG levels against G17 (SEQ ID NO: 36)” value ([3]; kidney transplanted patients, serum, 24 weeks after Tx vs baseline, IgG, G17) was 70%, the “Antibody level 24 weeks after transplantation and drug administration compared to baseline (%, median intensity): IgG levels against G20 (SEQ ID NO: 43)” value ([3]; kidney transplanted patients, serum, 24 weeks after Tx vs baseline, IgG, G20) was 58% and the “Antibody level 24 weeks after transplantation and drug administration compared to baseline (%, median intensity): IgG levels against G30 (SEQ ID NO: 65)” value ([3]; kidney transplanted patients, serum, 24 weeks after Tx vs baseline, IgG, G30) was 67%. For the same substance, the “Antibody level 24 weeks after transplantation and drug administration compared to baseline (%, median intensity): IgG levels against G40 (SEQ ID NO: 66)” value ([3]; kidney transplanted patients, serum, 24 weeks after Tx vs baseline, IgG, G40) was 81%, the “Antibody level 24 weeks after transplantation and drug administration compared to baseline (%, median intensity): IgM levels against G14 (SEQ ID NO: 41)” value ([3]; kidney transplanted patients, serum, 24 weeks after Tx vs baseline, IgM, G14) was 45% and the “Antibody level 24 weeks after transplantation and drug administration compared to baseline (%, median intensity): IgM levels against G17 (SEQ ID NO: 36)” value ([3]; kidney transplanted patients, serum, 24 weeks after Tx vs baseline, IgM, G17) was 63%. The “Antibody level 24 weeks after transplantation and drug administration compared to baseline (%, median intensity): IgM levels against G20 (SEQ ID NO: 43)” value ([3]; kidney transplanted patients, serum, 24 weeks after Tx vs baseline, IgM, G20) was 63%, the “Antibody level 24 weeks after transplantation and drug administration compared to baseline (%, median intensity): IgM levels against G30 (SEQ ID NO: 65)” value ([3]; kidney transplanted patients, serum, 24 weeks after Tx vs baseline, IgM, G30) was 59% and the “Antibody level 24 weeks after transplantation and drug administration compared to baseline (%, median intensity): IgM levels against G40 (SEQ ID NO: 66)” value ([3]; kidney transplanted patients, serum, 24 weeks after Tx vs baseline, IgM, G40) was 72%. The “reduction in G14 IgG autoantibody intensity” value [3, 4] was 47%, the “reduction in G14 IgM autoantibody intensity” value [3, 4] was 55% and the “reduction in G17 IgG autoantibody intensity” value [3, 4] was 30%. The “reduction in G17 IgM autoantibody intensity (FIG. 8A)” value [3, 4] was 37%, the “reduction in G20 IgG autoantibody intensity” value [3, 4] was 42% and the “reduction in G20 IgM autoantibody intensity” value [3, 4] was 37%. The “reduction in G30 IgG autoantibody intensity” value [3, 4] was 33%, the “reduction in G30 IgM autoantibody intensity” value [3, 4] was 41% and the “reduction in G40 IgG autoantibody intensity” value [3, 4] was 19%. The “reduction in G40 IgM autoantibody intensity” value [3, 4] was 28%.
With “G16T1: G16 with a single T added at the 3′ end (GGGGGGGGGGGGGGGGT; listed as DNA, chemistry not fully specified)” the “IgG binding compared to G17” value [1] was “considerably less than the binding to G17” and the “IgM binding compared to G17” value [2] was “considerably less than the binding to G17”.
For “A20: 20-mer adenine homo-nucleotide (AAAAAAAAAAAAAAAAAAAA; listed as DNA, chemistry not fully specified)”, the IgG reactivities [1, 5] was “relatively low reactivities” and the IgG reactivities [1, 6] was “very low or no reactivities”.
In the case of “TGGGGGGGGGGGGGGGG (listed as DNA, chemistry not given here) [T1G16]”, the “IgG binding compared to G17” value [1] is reported as “essentially equal to the binding to the G17” and the “IgM binding compared to G17” value [2] is reported as “essentially equal to the binding to the G17”.
For “T20: 20-mer thymine homo-nucleotide (DNA TTTTTTTTTTTTTTTTTTTT)”, the IgG reactivities [1, 5] was “relatively low reactivities” and the IgG reactivities [1, 6] was “very low or no reactivities”.
In the case of “T16G2: modified T17 oligonucleotide (DNA TTTTTTTTTTTTTTTTGG; listed as DNA, chemistry not fully specified)”, the “IgG reactivities compared to T17” value [1] is reported as “also increased compared to T17” and the “IgM reactivities compared to T17” value [2] is reported as “also increased compared to T17”.
